Data: article PMC10268594 (2023)

Legend:
Test in all cases: single-molecule MspA-M2 nanopore kinetics
[1] = tested on: Theophylline-binding aptamer (RNA, aptamer) AGUGAUACCAGCAUCGUCUUGAUGCCCUUGGCAGCACU; details: 1 M KCl; +180 mV, aptamer cis, 25 µM theophylline trans
[2] = tested on: Serotonin-binding aptamer (DNA, aptamer) CGACTGGTAGGCAGATAGGGGAAGCTGATTCGATGCGTGGGTCG; details: 1 M KCl; +120 mV, aptamer cis, serotonin trans
[3] = tested on: Dopamine-binding aptamer (DNA, aptamer) CGACGCCAGTTTGAAGGTTCGTTCGCAGGTGTGGAGTGACGTCG; details: 1 M KCl; 10 mM Tris pH 7.4, +180 mV, aptamer cis, 25 µM dopamine trans

Cn1c(=O)c2[nH]cnc2n(C)c1=O
Kd [1]: 72 ± 17 µM

NCCc1c[nH]c2ccc(O)cc12
Kd [2]: 9.0 ± 1.3 µM

NCCc1ccc(O)c(O)c1
Kd [3]: 27 ± 3 µM
